From patent publication US4459296A, “Piperazines and homopiperazines, N-substituted by an aromatic heterocyclic group, and their use in therapeutics” (Delalande S.A., priority 1982, dated 1984)
Like-named read-outs stand apart in the source and are kept apart here.

How the values were obtained:
[1] = Acute toxicity assessed intravenously in mice (method of Miller and Tainter); conditions: mouse, in vivo; for LD50: read-out: Acute toxicity LD 50
[2] = system: S.H.R. rats (genetically hypertensive); experiment: Antihypertensive activity by oral administration to S.H.R. rats (genetically hypertensive); format: in vivo
Procedure: The arterial blood pressure was recorded on an APELAB-BP recorder 8002-and an electromechanical counter provided a direct reading of the heartbeat rate. The measurements were taken at 0 hour, 2 hours, 4 hours, 6 hours and 24 hours after administration of the compounds tested.
To illustrate the invention, the results obtained with some of the compounds of the invention are shown in Table II below in which the symbols AHY, ΔPA and ΔFC have the following meanings:
AHY=% of rats whose arterial blood pressure drops by a value greater than or equal to 20% of the initial value or is brought down to a value less than 150 mmHg,
ΔPA=% variation of the arterial blood pressure in all the animals tested with respect to the initial blood pressure,
ΔFC=% variation of the heart-beat rate of all the animals tested with respect to the initial rate.

[3] = iv, 200 mg/kg, i.v., read-out: Acute toxicity (mice), % at 200 mg/kg i.v. (printed "at 200 (0%)")
[4] = po, 1000 mg/kg, p.o., read-out: Acute toxicity (mice), % at 1000 (p.o.)
[5] = dose 50, 4 hours after administration
[6] = dose 50, 6 hours after administration
[7] = dose 50, 24 hours after administration

Compound: c1cc(N2CCNCC2)c2nc[nH]c2c1 [Code No. 1, (piperazino-1)-4(7) benzimidazole, tribromhydrate]
- LD50 ([1]; iv): 125 mg/kg

Compound: CC(C)C(=O)N1CCN(c2cccc3[nH]cnc23)CC1 [Code No. 3]
- mortality [1, 3]: 0%

Compound: O=C(c1cccs1)N1CCN(c2cccc3[nH]cnc23)CC1 [Code No. 7]
- mortality [1, 3]: 0%

Compound: C=C(C)COC(=O)N1CCN(c2cccc3[nH]cnc23)CC1 [Code No. 17]
- mortality [1, 3]: 0%

Compound: CSc1nnc(C(=O)N2CCN(c3cccc4[nH]cnc34)CC2)o1 [compound 12]
- mortality [1, 4]: 0%

Compound: CCOC(=O)N1CCN(c2cccc3[nH]cnc23)CC1 [compound 13]
- LD50 ([1]; iv): 160 mg/kg

Compound: CC(C)COC(=O)N1CCN(c2cccc3[nH]cnc23)CC1 [compound 21]
- LD50 ([1]; iv): 195 mg/kg

Compound: c1ccc(SN2CCN(c3cccc4[nH]cnc34)CC2)cc1 [compound 24]
- mortality [1, 4]: 0%

Compound: CCOC(=O)N1CCN(c2ncnc3nc[nH]c23)CC1 [compound 25]
- mortality [1, 3]: 0%

Compound: CCOC(=O)N1CCN(c2cccc3[nH]c(C)nc23)CC1 [compound 26]
- LD50 ([1]; iv): 200 mg/kg

Compound: CCOC(=O)C1CCN(c2cccc3[nH]cnc23)CC1 [compound 30]
- LD50 ([1]; iv): 185 mg/kg

Compound: c1cc(N2CCNCC2)c2nn[nH]c2c1 [compound 39]
- LD50 ([1]; iv): 96 mg/kg

Compound: c1cc(N2CCNCC2)c2cc[nH]c2c1 [compound 41]
- LD50 ([1]; iv): 35 mg/kg

Compound: c1cc(N2CCNCC2)c2[nH]ccc2c1 [compound 42]
- LD50 ([1]; iv): 70 mg/kg

Compound: (benzyloxycarbonyl-4 piperazino-1)-4 indole [Code No. 40]
- AHY (% of rats whose arterial blood pressure drops by ≥20% of initial value or to <150 mmHg) [2, 5]: 86%
- ΔFC (% variation of the heart-beat rate vs initial) [2, 5]: -11%
- ΔPA (% variation of the arterial blood pressure vs initial) [2, 5]: -23%
- AHY (% of rats whose arterial blood pressure drops by ≥20% of initial value or to <150 mmHg) [2, 6]: 86%
- ΔFC (% variation of the heart-beat rate vs initial) [2, 6]: -8%
- ΔPA (% variation of the arterial blood pressure vs initial) [2, 6]: -23%
- AHY (% of rats whose arterial blood pressure drops by ≥20% of initial value or to <150 mmHg) [2, 7]: 0%
- ΔFC (% variation of the heart-beat rate vs initial) [2, 7]: -9%
- ΔPA (% variation of the arterial blood pressure vs initial) [2, 7]: -2%

Compound: (carbethoxy-4 piperazino-1)-4(7) benzimidazole, maleate [Code No. 13]
- AHY (% of rats whose arterial blood pressure drops by ≥20% of initial value or to <150 mmHg) [2, 6]: 71%
- ΔFC (% variation of the heart-beat rate vs initial) [2, 6]: 0%
- ΔPA (% variation of the arterial blood pressure vs initial) [2, 6]: -19%
- AHY (% of rats whose arterial blood pressure drops by ≥20% of initial value or to <150 mmHg) [2, 7]: 28%
- ΔFC (% variation of the heart-beat rate vs initial) [2, 7]: -7%
- ΔPA (% variation of the arterial blood pressure vs initial) [2, 7]: -9%

Compound: (carbethoxy-4 piperazino-1)-6 purine [Code No. 25]
- AHY (% of rats whose arterial blood pressure drops by ≥20% of initial value or to <150 mmHg) [2, 5]: 14%
- ΔFC (% variation of the heart-beat rate vs initial) [2, 5]: -5%
- ΔPA (% variation of the arterial blood pressure vs initial) [2, 5]: -8%
- AHY (% of rats whose arterial blood pressure drops by ≥20% of initial value or to <150 mmHg) [2, 6]: 57%
- ΔFC (% variation of the heart-beat rate vs initial) [2, 6]: +1%
- ΔPA (% variation of the arterial blood pressure vs initial) [2, 6]: -14%
- AHY (% of rats whose arterial blood pressure drops by ≥20% of initial value or to <150 mmHg) [2, 7]: 43%
- ΔFC (% variation of the heart-beat rate vs initial) [2, 7]: -4%
- ΔPA (% variation of the arterial blood pressure vs initial) [2, 7]: -9%

Compound: (piperazino-4 (7) benzotriazole, dihydrochloride [Code No. 39]
- AHY (% of rats whose arterial blood pressure drops by ≥20% of initial value or to <150 mmHg) [2, 5]: 33%
- ΔPA (% variation of the arterial blood pressure vs initial) [2, 5]: -15%
- AHY (% of rats whose arterial blood pressure drops by ≥20% of initial value or to <150 mmHg) [2, 6]: 67%
- ΔFC (% variation of the heart-beat rate vs initial) [2, 6]: +3%
- ΔPA (% variation of the arterial blood pressure vs initial) [2, 6]: -21%
- ΔFC (% variation of the heart-beat rate vs initial) [2, 7]: 0%
